Values after ≈ are worked out from the molar mass of the structure shown. Active and inactive are the calls of the source. The calls are words filed in the database; no cut-off is given here. Where a SMILES comes first, the peptide text is derived from it. Bridges are numbered along the chain shown (N, C = ends). [ ]: non-standard residue; d: D form. The star is where a group is joined. X1 = CC[C@H](C)CCCCC(=O)*; Orn = NCCC[C@H](N)C(=O)O; Dab = NCC[C@H](N)C(=O)O
Key:
Lipopolysaccharide (LPS) = experiment: Displacement of dansyl-polymyxinB from LPS (unknown origin) assessed as decrease in fluorescence intensity by fluorescence spectrophotometric analysis
Escherichia coli [1] = experiment: Antibacterial activity against Escherichia coli ATCC 8739 assessed as inhibition of bacterial growth measured after 24 hrs by turbidity based analysis; format: functional
Pseudomonas aeruginosa = experiment: Antibacterial activity against Pseudomonas aeruginosa ATCC 27853 assessed as inhibition of bacterial growth measured after 24 hrs by turbidity based analysis; format: functional
Acinetobacter baumannii = experiment: Antibacterial activity against Acinetobacter baumannii ATCC 19606 assessed as inhibition of bacterial growth measured after 24 hrs by turbidity based analysis; format: functional; settings: ATCC 19606 = CIP 70.34 = JCM 6841
Staphylococcus aureus [2] = experiment: Antibacterial activity against Staphylococcus aureus ATCC 6538 assessed as inhibition of bacterial growth measured after 24 hrs by turbidity based analysis; format: functional
Enterococcus faecalis = experiment: Antibacterial activity against Enterococcus faecalis ATCC 29212 assessed as inhibition of bacterial growth measured after 24 hrs by turbidity based analysis; format: functional
Staphylococcus aureus [3] = experiment: Antibacterial activity against methicillin resistant Staphylococcus aureus assessed as inhibition of bacterial growth measured after 24 hrs by turbidity based analysis; format: functional
[4] = Hemolytic activity in human RBC assessed as induction of cell lysis measured after 30 mins by microtiter plate method; format: cell-based, Erythrocyte; settings: human red blood cells (erythrocytes)
Cell membrane [5] = experiment: Induction of outer membrane permeabilization to NPN in Escherichia coli ATCC 8739 cells assessed as increase in fluorescence intensity by NPN-probe based fluorescence spectrophotometric analysis; format: subcellular
Cell membrane [6] = experiment: Induction of cytoplasmic membrane depolarization in Escherichia coli assessed as increase in fluorescence intensity a 1XMIC by DiSC3-5 dye based fluorescence method
Cell membrane [7] = experiment: Induction of cytoplasmic membrane depolarization in Staphylococcus aureus assessed as increase in fluorescence intensity a 1XMIC by DiSC3-5 dye based fluorescence method
L02 = experiment: Cytotoxicity against human L02 cells assessed as reduction in cell viability at 5 uM incubated for 24 hrs by CCK8 assay; format: cell-based; settings: l02, 24 h
Cell membrane [8] = experiment: Induction of cytoplasmic membrane permeabilization in Escherichia coli at 0.5 times MIC measured for 10 mins by propidium iodide dye based fluorescence assay; format: subcellular
Cell membrane [9] = experiment: Induction of cytoplasmic membrane permeabilization in Escherichia coli at 1 times MIC measured for 10 mins by propidium iodide dye based fluorescence assay; format: subcellular
Cell membrane [10] = experiment: Induction of cytoplasmic membrane permeabilization in Staphylococcus aureus at 0.5 times MIC measured for 10 mins by propidium iodide dye based fluorescence assay; format: subcellular
Cell membrane [11] = experiment: Induction of cytoplasmic membrane permeabilization in Staphylococcus aureus at 1 times MIC measured for 10 mins by propidium iodide dye based fluorescence assay
Lipid bilayer [12] = experiment: Binding affinity to bacterial inner membrane mimic DOPE/DOPG (3:1) large unilamellar vesicles assessed as calcein leakage measured after 30 mins fluorescence based assay
Escherichia coli [13] = experiment: Bactericidal activity against Escherichia coli assessed as decrease in cell survival at 0.5XMIC measured after 24 hrs by colony counting assay; format: functional, organism-based
Staphylococcus aureus [14] = experiment: Bactericidal activity against Staphylococcus aureus assessed as decrease in cell survival at 0.5XMIC measured after 24 hrs by colony counting assay; format: functional, organism-based
Lipid bilayer [15] = experiment: Binding affinity to eukaryotic cell membrane mimic DOPC/Cholesterol (3:1) large unilamellar vesicles assessed as calcein leakage measured after 30 mins fluorescence based assay
Staphylococcus aureus [16] = experiment: Antibacterial activity against Staphylococcus aureus ATCC 6538 assessed as inhibition of bacterial growth measured after 17 passages by turbidity based analysis; format: functional, organism-based
Escherichia coli [17] = experiment: Antibacterial activity against Escherichia coli ATCC 8739 assessed as inhibition of bacterial growth measured after 17 passages by turbidity based analysis; format: functional, organism-based

Row | SMILES | Activity (Lipopolysaccharide (LPS)) | MIC (Escherichia coli [1]) | MIC (Pseudomonas aeruginosa) | MIC (Acinetobacter baumannii) | MIC (Staphylococcus aureus [2]) | MIC (Enterococcus faecalis) | MIC (Staphylococcus aureus [3]) | HC50 at 0.5 h [4] | Activity (Cell membrane [5]) | Activity (Cell membrane [6]) | Activity (Cell membrane [7]) | other results
1 | NCCC[C@@H]1NC(=O)[C@H](CCCN)NC(=O)[C@H](CCCN)NC(=O)[C@H](CCCN)NC(=O)[C@@H](Cc2ccccc2)NC(=O)[C@H](Cc2ccccc2)NC(=O)[C@@H]2CCCN2C(=O)[C@@H](Cc2ccccc2)NC(=O)[C@H](CCCN)NC(=O)[C@H](CCCN)NC1=O | Active | 40 µM (≈ 48.9 µg/mL) | 80 µM (≈ 97.9 µg/mL) | 80 µM (≈ 97.9 µg/mL) | 20 µM (≈ 24.5 µg/mL) | 10 µM (≈ 12.2 µg/mL) | 40 µM (≈ 48.9 µg/mL) | > 400 µM | Active | inactive | inactive | 
2 | CC(C)C[C@@H]1NC(=O)[C@H](CCCN)NC(=O)[C@H](C(C)C)NC(=O)[C@H](CCCN)NC(=O)[C@H](CCC(N)=O)NC(=O)[C@H](CCCN)NC(=O)[C@@H](Cc2ccccc2)NC(=O)[C@H](Cc2ccccc2)NC(=O)[C@@H]2CCCN2C(=O)[C@@H](Cc2ccccc2)NC1=O |  | 5 µM (≈ 6.11 µg/mL) | 40 µM (≈ 48.9 µg/mL) | 10 µM (≈ 12.2 µg/mL) | 5 µM (≈ 6.11 µg/mL) | 5 µM (≈ 6.11 µg/mL) | 10 µM (≈ 12.2 µg/mL) | 282 µM | Active | Active | Active | 
3 | CC(C)[C@@H]1NC(=O)[C@H](CCCN)NC(=O)[C@H](CCCN)NC(=O)[C@H](CCCN)NC(=O)[C@@H](Cc2ccccc2)NC(=O)[C@H](Cc2ccccc2)NC(=O)[C@@H]2CCCN2C(=O)[C@@H](Cc2ccccc2)NC(=O)[C@H](CCCN)NC(=O)[C@H](CCCN)NC1=O | Active | 80 µM (≈ 96.7 µg/mL) | 80 µM (≈ 96.7 µg/mL) | 80 µM (≈ 96.7 µg/mL) | 40 µM (≈ 48.3 µg/mL) | 10 µM (≈ 12.1 µg/mL) | 10 µM (≈ 12.1 µg/mL) | > 400 µM |  |  |  | 
4 | CC(C)C[C@@H]1NC(=O)[C@H](CCCN)NC(=O)[C@H](C(C)C)NC(=O)[C@H](Cc2ccc(O)cc2)NC(=O)[C@H](CCC(N)=O)NC(=O)[C@H](CC(N)=O)NC(=O)[C@@H](Cc2ccccc2)NC(=O)[C@H](Cc2ccccc2)NC(=O)[C@@H]2CCCN2C(=O)[C@@H](Cc2ccccc2)NC1=O [TYROCIDINE A] (cyclo(F[dF]NQYV[Orn]L[dF]P)) | Active | 20 µM (≈ 25.4 µg/mL) | 80 µM (≈ 102 µg/mL) | 10 µM (≈ 12.7 µg/mL) | 2.5 µM (≈ 3.18 µg/mL) | 2.5 µM (≈ 3.18 µg/mL) | 20 µM (≈ 25.4 µg/mL) | 14 µM | Active | Active | Active | Activity (L02): Toxic; Activity (Cell membrane [8]): Active; Activity (Cell membrane [9]): Active; Activity (Cell membrane [10]): Active; Activity (Cell membrane [11]): Active; Activity (Lipid bilayer [12]): Active; Activity (Escherichia coli [13]): inactive; Activity (Staphylococcus aureus [14]): inactive; Activity (Lipid bilayer [15]): Active
5 | CC(C)C[C@@H]1NC(=O)[C@H](CCCN)NC(=O)[C@H](C(C)C)NC(=O)[C@H](CCCN)NC(=O)[C@H](CCCN)NC(=O)[C@H](CC(N)=O)NC(=O)[C@@H](Cc2ccccc2)NC(=O)[C@H](Cc2ccccc2)NC(=O)[C@@H]2CCCN2C(=O)[C@@H](Cc2ccccc2)NC1=O |  | 10 µM (≈ 12.1 µg/mL) | 20 µM (≈ 24.1 µg/mL) | 10 µM (≈ 12.1 µg/mL) | 10 µM (≈ 12.1 µg/mL) | 2.5 µM (≈ 3.02 µg/mL) | 10 µM (≈ 12.1 µg/mL) | 70 µM |  |  |  | 
6 | CC(C)C[C@@H]1NC(=O)[C@H](CCCN)NC(=O)[C@H](C(C)C)NC(=O)[C@H](Cc2ccc(O)cc2)NC(=O)[C@H](CCCN)NC(=O)[C@H](CC(N)=O)NC(=O)[C@@H](Cc2ccccc2)NC(=O)[C@H](Cc2ccccc2)NC(=O)[C@@H]2CCCN2C(=O)[C@@H](Cc2ccccc2)NC1=O (cyclo(F[dF]N[Orn]YV[Orn]L[dF]P)) |  | 5 µM (≈ 6.28 µg/mL) | 40 µM (≈ 50.3 µg/mL) | 5 µM (≈ 6.28 µg/mL) | 2.5 µM (≈ 3.14 µg/mL) | 1.25 µM (≈ 1.57 µg/mL) | 5 µM (≈ 6.28 µg/mL) | 10 µM |  |  |  | 
7 | CC(C)C[C@@H]1NC(=O)[C@H](CCCN)NC(=O)[C@H](C(C)C)NC(=O)[C@H](Cc2ccc(O)cc2)NC(=O)[C@H](CCCN)NC(=O)[C@H](CCCN)NC(=O)[C@@H](Cc2ccccc2)NC(=O)C(Cc2ccccc2)NC(=O)[C@@H]2CCCN2C(=O)[C@@H](Cc2ccccc2)NC1=O (single isomer, unassigned) |  | 5 µM (≈ 6.28 µg/mL) | 40 µM (≈ 50.3 µg/mL) | 5 µM (≈ 6.28 µg/mL) | 5 µM (≈ 6.28 µg/mL) | 2.5 µM (≈ 3.14 µg/mL) | 5 µM (≈ 6.28 µg/mL) | 24 µM |  |  |  | 
8 | CC(C)C[C@@H]1NC(=O)[C@H](CCCN)NC(=O)[C@H](C(C)C)NC(=O)[C@H](Cc2ccc(O)cc2)NC(=O)[C@H](CCC(N)=O)NC(=O)[C@H](CCCN)NC(=O)[C@@H](Cc2ccccc2)NC(=O)[C@H](Cc2ccccc2)NC(=O)[C@@H]2CCCN2C(=O)[C@@H](Cc2ccccc2)NC1=O |  | 20 µM (≈ 25.4 µg/mL) | 80 µM (≈ 102 µg/mL) | 5 µM (≈ 6.35 µg/mL) | 5 µM (≈ 6.35 µg/mL) | 2.5 µM (≈ 3.18 µg/mL) | 20 µM (≈ 25.4 µg/mL) | 20 µM | Active |  |  | 
9 | CC(C)C[C@@H]1NC(=O)[C@H](CCCN)NC(=O)[C@H](C(C)C)NC(=O)[C@H](CCCN)NC(=O)[C@H](CCCN)NC(=O)[C@H](CCCN)NC(=O)[C@@H](Cc2ccccc2)NC(=O)[C@H](Cc2ccccc2)NC(=O)[C@@H]2CCCN2C(=O)[C@@H](Cc2ccccc2)NC1=O | Active | 5 µM (≈ 6.04 µg/mL) | 20 µM (≈ 24.2 µg/mL) | 10 µM (≈ 12.1 µg/mL) | 5 µM (≈ 6.04 µg/mL) | 5 µM (≈ 6.04 µg/mL) | 10 µM (≈ 12.1 µg/mL) | 196 µM | Active | Active | Active | 
10 | CC(C)C[C@@H]1NC(=O)[C@H](CCCN)NC(=O)[C@H](C(C)C)NC(=O)[C@H](CCCN)NC(=O)[C@H](CCC(N)=O)NC(=O)[C@H](CC(N)=O)NC(=O)[C@@H](Cc2ccccc2)NC(=O)[C@H](Cc2ccccc2)NC(=O)[C@@H]2CCCN2C(=O)[C@@H](Cc2ccccc2)NC1=O |  | 40 µM (≈ 48.9 µg/mL) | 80 µM (≈ 97.7 µg/mL) | 10 µM (≈ 12.2 µg/mL) | 10 µM (≈ 12.2 µg/mL) | 5 µM (≈ 6.11 µg/mL) | 10 µM (≈ 12.2 µg/mL) | 43 µM |  |  |  | 
11 | CC[C@H](C)CCCCC(=O)N[C@@H](CCN)C(=O)N[C@H](C(=O)N[C@@H](CCN)C(=O)N[C@H]1CCNC(=O)[C@H]([C@@H](C)O)NC(=O)[C@H](CCN)NC(=O)[C@H](CCN)NC(=O)[C@H](CC(C)C)NC(=O)[C@@H](Cc2ccccc2)NC(=O)[C@H](CCN)NC1=O)[C@@H](C)O (X1-[Dab]T[Dab][Dab][Dab][dF]L[Dab][Dab]T; lactam 4-C) | Active |  |  |  |  |  |  |  |  |  |  | 
12 | O=C(O)c1cn(C2CC2)c2cc(N3CCNCC3)c(F)cc2c1=O |  |  |  |  |  |  |  |  |  |  |  | Activity (Staphylococcus aureus [16]): inactive; Activity (Escherichia coli [17]): inactive

Source: ChEMBL document CHEMBL4837216, “Polymyxin B-inspired non-hemolytic tyrocidine A analogues with significantly enhanced activity against gram-negative bacteria: How cationicity impacts cell specificity and antibacterial mechanism” (Eur J Med Chem, 2021)
